Data as given in the CheMixHub viscosity set.
Where “and” joins values, the source holds several entries; their conditions need not be identical. Equal values may be shown once.

Assay: xn = mol fraction of the nth substance listed

ClC(Cl)(Cl)Cl + C1CCCCC1
Conditions	viscosity [mPa·s]
298 K, 101 kPa, x1 = 0.2753	0.8903
298 K, 101 kPa, x1 = 0.3845	0.8916
298 K, 101 kPa, x1 = 0.4418	0.8924
298 K, 101 kPa, x1 = 0.4727	0.8928
298 K, 101 kPa, x1 = 0.58	0.8943
298 K, 101 kPa, x1 = 0.6707	0.8955
298 K, 101 kPa, x1 = 0.6805	0.8956
298 K, 101 kPa, x1 = 0.7701	0.8969
298 K, 101 kPa, x1 = 0.864	0.8982
298 K, 101.3 kPa, x1 = 0.1774	0.847
298 K, 101.3 kPa, x1 = 0.3265	0.831
298 K, 101.3 kPa, x1 = 0.5278	0.836
298 K, 101.3 kPa, x1 = 0.6746	0.844
298 K, 101.3 kPa, x1 = 0.8521	0.86
298.15 K, 101 kPa, x1 = 0.272	0.858
298.15 K, 101 kPa, x1 = 0.5295	0.8568
298.15 K, 101 kPa, x1 = 0.7707	0.867
298.15 K, 101.33 kPa, x1 = 0.272	0.858
298.15 K, 101.33 kPa, x1 = 0.5	0.8551
298.15 K, 101.33 kPa, x1 = 0.5295	0.8568
298.15 K, 101.33 kPa, x1 = 0.625	0.8594
298.15 K, 101.33 kPa, x1 = 0.7707	0.867
318 K, 101.3 kPa, x1 = 0.1636	0.6445
318 K, 101.3 kPa, x1 = 0.3244	0.6522
318 K, 101.3 kPa, x1 = 0.5293	0.667
318 K, 101.3 kPa, x1 = 0.6744	0.6869
318 K, 101.3 kPa, x1 = 0.8658	0.7148

ClC(Cl)(Cl)Cl + C1COCCO1
101 kPa
Conditions	viscosity
298.15 K, x1 = 0.1175	1.203 mPa·s
298.15 K, x1 = 0.219	1.208 mPa·s
298.15 K, x1 = 0.373	1.193 mPa·s
298.15 K, x1 = 0.5081	1.165 mPa·s
298.15 K, x1 = 0.675	1.093 mPa·s
298.15 K, x1 = 0.8092	1.009 mPa·s
298.15 K, x1 = 0.892	0.961 mPa·s
303.15 K, x1 = 0.675	1.007 mPa·s
303.15 K, x1 = 0.8092	0.938 mPa·s
303.15 K, x1 = 0.892	0.896 mPa·s
303.15 K, x2 = 0.0983	0.901 mPa·s
303.15 K, x2 = 0.1116	0.907 mPa·s
303.15 K, x2 = 0.112	0.922 mPa·s
303.15 K, x2 = 0.204	0.957 mPa·s
303.15 K, x2 = 0.2198	0.9914 mPa·s
303.15 K, x2 = 0.22	1.016 mPa·s
303.15 K, x2 = 0.2994	1.011 mPa·s
303.15 K, x2 = 0.4025	1.055 mPa·s
303.15 K, x2 = 0.4985	1.086 mPa·s
303.15 K, x2 = 0.53	1.163 mPa·s
303.15 K, x2 = 0.5302	1.163 mPa·s
303.15 K, x2 = 0.6286	1.164 mPa·s
303.15 K, x2 = 0.629	1.164 mPa·s
303.15 K, x2 = 0.7245	1.161 mPa·s
303.15 K, x2 = 0.725	1.161 mPa·s
303.15 K, x2 = 0.91	1.078 mPa·s and 1.092 mPa·s
308.15 K, x1 = 0.219	1.024 mPa·s
308.15 K, x1 = 0.5081	0.992 mPa·s
308.15 K, x1 = 0.675	0.93 mPa·s
308.15 K, x1 = 0.8092	0.871 mPa·s
308.15 K, x1 = 0.892	0.834 mPa·s
313.15 K, x1 = 0.1175	0.95 mPa·s
313.15 K, x1 = 0.219	0.945 mPa·s
313.15 K, x1 = 0.373	0.934 mPa·s
313.15 K, x1 = 0.5081	0.92 mPa·s
313.15 K, x1 = 0.675	0.866 mPa·s
313.15 K, x1 = 0.8092	0.81 mPa·s
313.15 K, x1 = 0.892	0.778 mPa·s
318.15 K, x1 = 0.1175	0.882 mPa·s
318.15 K, x1 = 0.219	0.876 mPa·s
318.15 K, x1 = 0.373	0.865 mPa·s
318.15 K, x1 = 0.5081	0.85 mPa·s
318.15 K, x1 = 0.675	0.806 mPa·s
318.15 K, x1 = 0.8092	0.757 mPa·s
318.15 K, x1 = 0.892	0.73 mPa·s

ClC(Cl)(Cl)Cl + C=C(C)C(=O)OC
303.15 K, 101 kPa
Conditions	viscosity [mPa·s]
x2 = 0.0997	0.7954
x2 = 0.1978	0.753
x2 = 0.4056	0.6767
x2 = 0.5067	0.641
x2 = 0.5941	0.6167
x2 = 0.7976	0.5599
x2 = 0.8944	0.536

ClC(Cl)(Cl)Cl + CC#N
viscosity [mPa·s], 101 kPa
Conditions	293.15 K	298.15 K	303.15 K	313.15 K	323.15 K
x2 = 0.007	0.954	0.883	0.813	0.74	0.638
x2 = 0.026	0.948	0.855	0.798	0.724	0.612
x2 = 0.084	0.906	0.862	0.831	0.736	0.659
